According to patent publication US20110230481A2, “DERIVATIVES OF TETRABROMOBENZIMIDAZOLE, A PROCESS FOR THE PREPARATION THEREOF, A PHARMACEUTICAL COMPOSITION COMPRISING THE SAME, A METHOD OF USING THE SAME, A METHOD FOR MODULATING OR REGULATING SERINE/THREONINE KINASES, AND SERINE/THREONINE KINASES MODULATING AGENT” (SELVITA S.A., priority 2009, published 2011):

Columns and labels:
Assay in all cases: KINOMEscan Max
Format in all cases: binding
PRKCI = molecular target: T1, PRKCI (Homo sapiens, UniProt P41743)
T1 construct: DNA tag (qPCR read-out)
Protocol: (§1) Kinase panel profiling was performed at Ambit Kinomescan (http://www.ambitbio.com/technology/) using the “KINOMEscan™ Max” assay platform, a high-throughput method for screening small molecule compounds against large numbers of human kinases. KINOMEscan™ is based on a competition binding assay that quantitatively measures the ability of a compound to compete with an immobilized, active-site directed ligand. The assay is performed by combining three components: DNA-tagged kinase; immobilized ligand; and a test compound. The ability of the test compound to compete with the immobilized ligand is measured via quantitative PCR of the DNA tag. For a description of Ambit's assay protocol, see Fabian et al. A small molecule-kinase interaction map for clinical kinase inhibitors. Nat. Biotechnol. 23, 329-336 (2005).

KIT(D816H) = molecular target: T2, KIT(D816H) (Homo sapiens, UniProt P10721, D816H)
T2 construct: purchased Ambit Kinomescan (contract screening)
Protocol: as §1

ERK4 = molecular target: T3, ERK4 (Homo sapiens, UniProt P31152)
T3 construct: purchased Ambit Kinomescan (contract screening)
Protocol: as §1

PAK6 = PAK6 (Homo sapiens, UniProt Q9NQU5)
Protocol: as §1

KIT(V559D.V654A) = molecular target: T4, KIT(V559D.V654A) (Homo sapiens, UniProt P10721, V559D/V654A)
T4 construct: purchased Ambit Kinomescan (contract panel)
Protocol: as §1

PIK3CA(E545A) = molecular target: T5, PIK3CA(E545A) (Homo sapiens, UniProt P42336, E545A)
T5 construct: purchased Ambit Kinomescan (contract screening)
Protocol: as §1

PIK3C2B = molecular target: T6, PIK3C2B (Homo sapiens, UniProt O00750)
T6 construct: purchased Ambit Kinomescan (contract screening)
Protocol: as §1

YSK1 = molecular target: T7, YSK1 (Homo sapiens, UniProt O00506)
T7 construct: purchased Ambit Kinomescan (contract screening service)
Protocol: as §1

AAK1 = molecular target: T8, AAK1 (Homo sapiens, UniProt Q2M2I8)
T8 construct: purchased Ambit Kinomescan (contract screening)
Protocol: as §1

IRAK3 = molecular target: T9, IRAK3 (Homo sapiens, UniProt Q9Y616)
T9 construct: purchased Ambit (KINOMEscan Max service)
Protocol: as §1

IGF1R = molecular target: T10, IGF1R (Homo sapiens, UniProt P08069)
T10 construct: purchased Ambit Kinomescan (contract panel, KINOMEscan Max)
Protocol: as §1

NDR1 = NDR1 (Homo sapiens, UniProt Q15208)
Protocol: as §1

FLT3 = molecular target: T11, FLT3 (Homo sapiens, UniProt P36888)
T11 construct: purchased Ambit Kinomescan (contract panel, KINOMEscan Max)
Protocol: as §1

STK16 = molecular target: T12, STK16 (Homo sapiens, UniProt O75716)
T12 construct: DNA tag (qPCR read-out)
Protocol: as §1

FLT3(R834Q) = molecular target: T13, FLT3(R834Q) (Homo sapiens, UniProt P36888, R834Q)
T13 construct: purchased Ambit Kinomescan (contract panel, KINOMEscan Max)
Protocol: as §1

MUSK = molecular target: T14, MUSK (Homo sapiens, UniProt O15146)
T14 construct: purchased Ambit Kinomescan (contract screening)
Protocol: as §1

PIK3CA(E545K) = PIK3CA(E545K) (Homo sapiens, UniProt P42336, E545K)
Protocol: as §1

EPHB1 = molecular target: T15, EPHB1 (Homo sapiens, UniProt P54762)
T15 construct: purchased Ambit (KINOMEscan Max panel service)
Protocol: as §1

BRSK2 = molecular target: T16, BRSK2 (Homo sapiens, UniProt Q8IWQ3)
T16 construct: DNA tag (qPCR read-out)
Protocol: as §1

SRPK3 = molecular target: T17, SRPK3 (Homo sapiens, UniProt Q9UPE1)
T17 construct: DNA tag (qPCR read-out)
Protocol: as §1

CAMKK1 = molecular target: T18, CAMKK1 (Homo sapiens, UniProt Q8N5S9)
T18 construct: DNA tag (qPCR label); purchased Ambit Kinomescan (contract screening)
Protocol: as §1

MKNK1 = MKNK1 (Homo sapiens, UniProt Q9BUB5)
Protocol: as §1

PHKG1 = PHKG1 (Homo sapiens, UniProt Q16816)
Protocol: as §1

KIT(A829P) = molecular target: T19, KIT(A829P) (Homo sapiens, UniProt P10721, A829P)
T19 construct: purchased Ambit Kinomescan (contract panel)
Protocol: as §1

HIPK2 = molecular target: T20, HIPK2 (Homo sapiens, UniProt Q9H2X6)
T20 construct: DNA tag (qPCR read-out); purchased Ambit Kinomescan
Protocol: as §1

PCTK2 = PCTK2 (Homo sapiens, UniProt Q00537)
Protocol: as §1

EGFR(L858R.T790M) = molecular target: T21, EGFR(L858R.T790M) (Homo sapiens, UniProt P00533, L858R/T790M); conditions: 1 μM
T21 construct: purchased Ambit (KINOMEscan Max panel service)
Protocol: as §1

PIK3CA(C420R) = molecular target: T22, PIK3CA(C420R) (Homo sapiens, UniProt P42336, C420R)
T22 construct: DNA tag (qPCR read-out)
Protocol: as §1

FYN = molecular target: T23, FYN (Homo sapiens, UniProt P06241)
T23 construct: purchased Ambit Kinomescan (contract panel, KINOMEscan Max)
Protocol: as §1

PAK4 = molecular target: T24, PAK4 (Homo sapiens, UniProt O96013)
T24 construct: purchased Ambit (KINOMEscan Max service)
Protocol: as §1

FGR = molecular target: T25, FGR (Homo sapiens, UniProt P09769)
T25 construct: purchased Ambit Kinomescan (contract panel, KINOMEscan Max)
Protocol: as §1

PRKG2 = molecular target: T26, PRKG2 (Homo sapiens, UniProt Q13237)
T26 construct: DNA tag (qPCR read-out); purchased Ambit Kinomescan
Protocol: as §1

FES = molecular target: T27, FES (Homo sapiens, UniProt P07332)
T27 construct: purchased Ambit Kinomescan (contract panel, KINOMEscan Max)
Protocol: as §1

S6K1 = S6K1 (Homo sapiens, UniProt P23443)
Protocol: as §1

S6K1, sequence (P23443 whole entry): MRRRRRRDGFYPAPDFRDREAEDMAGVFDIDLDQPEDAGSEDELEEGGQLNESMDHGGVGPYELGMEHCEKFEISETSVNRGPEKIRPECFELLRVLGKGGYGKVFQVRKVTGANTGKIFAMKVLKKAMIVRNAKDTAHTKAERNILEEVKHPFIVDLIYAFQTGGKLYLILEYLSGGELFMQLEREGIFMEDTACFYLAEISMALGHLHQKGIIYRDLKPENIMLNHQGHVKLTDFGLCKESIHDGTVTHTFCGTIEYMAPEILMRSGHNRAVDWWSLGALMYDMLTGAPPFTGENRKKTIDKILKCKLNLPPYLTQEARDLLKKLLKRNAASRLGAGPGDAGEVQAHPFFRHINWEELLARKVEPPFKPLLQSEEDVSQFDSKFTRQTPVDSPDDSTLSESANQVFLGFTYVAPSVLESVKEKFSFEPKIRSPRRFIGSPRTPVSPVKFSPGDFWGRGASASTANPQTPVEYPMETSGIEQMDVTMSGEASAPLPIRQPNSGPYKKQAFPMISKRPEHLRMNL
T5 sequence (P42336 whole entry E545A): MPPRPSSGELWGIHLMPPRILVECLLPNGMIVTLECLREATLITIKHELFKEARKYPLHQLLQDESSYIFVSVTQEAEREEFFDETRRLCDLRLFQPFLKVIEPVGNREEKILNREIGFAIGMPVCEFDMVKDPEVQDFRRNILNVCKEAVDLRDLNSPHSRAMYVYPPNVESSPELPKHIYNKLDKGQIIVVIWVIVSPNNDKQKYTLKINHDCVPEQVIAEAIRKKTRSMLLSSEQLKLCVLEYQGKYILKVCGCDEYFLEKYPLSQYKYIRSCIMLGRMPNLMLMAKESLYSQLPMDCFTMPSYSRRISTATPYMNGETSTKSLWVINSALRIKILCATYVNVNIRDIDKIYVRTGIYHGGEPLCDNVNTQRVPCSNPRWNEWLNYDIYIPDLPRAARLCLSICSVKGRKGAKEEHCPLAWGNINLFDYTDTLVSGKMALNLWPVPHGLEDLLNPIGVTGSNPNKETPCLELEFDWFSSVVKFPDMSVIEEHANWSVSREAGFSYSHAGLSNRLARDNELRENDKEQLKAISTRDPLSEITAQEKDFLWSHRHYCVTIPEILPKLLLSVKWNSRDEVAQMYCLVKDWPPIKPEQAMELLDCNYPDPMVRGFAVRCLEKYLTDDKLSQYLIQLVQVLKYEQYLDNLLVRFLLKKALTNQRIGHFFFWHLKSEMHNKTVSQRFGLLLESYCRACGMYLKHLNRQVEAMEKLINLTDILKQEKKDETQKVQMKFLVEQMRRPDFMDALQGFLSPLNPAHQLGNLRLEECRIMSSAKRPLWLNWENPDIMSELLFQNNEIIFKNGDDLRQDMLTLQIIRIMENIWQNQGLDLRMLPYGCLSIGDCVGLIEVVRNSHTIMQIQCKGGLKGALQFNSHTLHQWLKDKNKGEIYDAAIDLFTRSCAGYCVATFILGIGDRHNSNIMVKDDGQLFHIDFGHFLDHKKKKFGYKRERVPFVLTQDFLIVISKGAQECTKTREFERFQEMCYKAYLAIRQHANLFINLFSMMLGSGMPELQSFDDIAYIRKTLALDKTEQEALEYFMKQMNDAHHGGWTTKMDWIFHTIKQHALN
T20 sequence (Q9H2X6 whole entry): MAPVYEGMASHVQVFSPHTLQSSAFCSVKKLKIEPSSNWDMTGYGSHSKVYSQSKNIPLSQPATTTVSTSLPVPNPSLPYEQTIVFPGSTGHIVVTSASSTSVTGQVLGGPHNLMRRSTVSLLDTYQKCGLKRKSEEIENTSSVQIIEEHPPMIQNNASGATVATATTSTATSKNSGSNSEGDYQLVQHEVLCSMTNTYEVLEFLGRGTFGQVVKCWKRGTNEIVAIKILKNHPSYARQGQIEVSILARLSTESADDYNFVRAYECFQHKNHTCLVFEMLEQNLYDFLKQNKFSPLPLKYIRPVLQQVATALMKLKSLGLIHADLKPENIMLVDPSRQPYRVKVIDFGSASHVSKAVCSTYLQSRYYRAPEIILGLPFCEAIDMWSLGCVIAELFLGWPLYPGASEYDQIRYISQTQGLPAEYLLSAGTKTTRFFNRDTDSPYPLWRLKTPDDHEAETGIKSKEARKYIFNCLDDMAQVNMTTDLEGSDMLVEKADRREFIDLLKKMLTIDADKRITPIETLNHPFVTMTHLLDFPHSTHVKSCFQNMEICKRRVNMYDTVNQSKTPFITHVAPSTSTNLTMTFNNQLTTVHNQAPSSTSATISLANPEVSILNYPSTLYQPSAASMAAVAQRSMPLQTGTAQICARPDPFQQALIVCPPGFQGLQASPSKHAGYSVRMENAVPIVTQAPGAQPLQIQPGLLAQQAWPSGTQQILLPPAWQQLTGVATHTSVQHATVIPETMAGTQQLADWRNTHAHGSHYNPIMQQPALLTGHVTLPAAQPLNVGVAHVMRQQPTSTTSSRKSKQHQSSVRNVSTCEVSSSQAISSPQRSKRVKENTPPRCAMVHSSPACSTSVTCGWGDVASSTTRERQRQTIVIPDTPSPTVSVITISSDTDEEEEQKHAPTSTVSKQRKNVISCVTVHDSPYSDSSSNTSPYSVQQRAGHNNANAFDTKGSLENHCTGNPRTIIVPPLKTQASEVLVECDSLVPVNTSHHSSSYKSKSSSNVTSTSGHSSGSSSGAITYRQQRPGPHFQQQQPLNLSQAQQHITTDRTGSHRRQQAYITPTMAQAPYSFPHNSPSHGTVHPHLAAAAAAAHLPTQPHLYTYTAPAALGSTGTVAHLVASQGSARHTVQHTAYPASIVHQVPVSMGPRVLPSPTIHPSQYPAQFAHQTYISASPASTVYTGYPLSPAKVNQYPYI
T27 sequence (P07332 whole entry): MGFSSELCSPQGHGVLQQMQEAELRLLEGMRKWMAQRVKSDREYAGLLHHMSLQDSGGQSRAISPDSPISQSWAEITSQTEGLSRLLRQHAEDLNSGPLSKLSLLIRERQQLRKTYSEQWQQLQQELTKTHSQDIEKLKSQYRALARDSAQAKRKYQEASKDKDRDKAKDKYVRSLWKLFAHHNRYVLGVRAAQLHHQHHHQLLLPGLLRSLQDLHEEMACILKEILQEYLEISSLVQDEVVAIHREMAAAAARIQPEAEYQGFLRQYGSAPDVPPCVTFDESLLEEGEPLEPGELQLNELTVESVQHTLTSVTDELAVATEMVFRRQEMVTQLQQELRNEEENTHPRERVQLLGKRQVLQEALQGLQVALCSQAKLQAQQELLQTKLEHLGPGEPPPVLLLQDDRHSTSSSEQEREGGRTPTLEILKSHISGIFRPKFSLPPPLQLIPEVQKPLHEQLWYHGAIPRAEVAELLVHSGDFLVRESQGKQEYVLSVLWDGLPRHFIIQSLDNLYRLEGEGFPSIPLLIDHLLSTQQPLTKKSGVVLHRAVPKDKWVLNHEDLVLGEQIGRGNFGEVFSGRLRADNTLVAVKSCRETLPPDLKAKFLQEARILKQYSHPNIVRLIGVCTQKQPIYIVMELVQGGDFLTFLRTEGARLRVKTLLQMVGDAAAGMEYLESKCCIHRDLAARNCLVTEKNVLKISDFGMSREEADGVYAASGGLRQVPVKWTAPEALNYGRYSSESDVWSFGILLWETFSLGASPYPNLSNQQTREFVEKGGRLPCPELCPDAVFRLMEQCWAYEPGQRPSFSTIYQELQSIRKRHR
T3 sequence (P31152 whole entry): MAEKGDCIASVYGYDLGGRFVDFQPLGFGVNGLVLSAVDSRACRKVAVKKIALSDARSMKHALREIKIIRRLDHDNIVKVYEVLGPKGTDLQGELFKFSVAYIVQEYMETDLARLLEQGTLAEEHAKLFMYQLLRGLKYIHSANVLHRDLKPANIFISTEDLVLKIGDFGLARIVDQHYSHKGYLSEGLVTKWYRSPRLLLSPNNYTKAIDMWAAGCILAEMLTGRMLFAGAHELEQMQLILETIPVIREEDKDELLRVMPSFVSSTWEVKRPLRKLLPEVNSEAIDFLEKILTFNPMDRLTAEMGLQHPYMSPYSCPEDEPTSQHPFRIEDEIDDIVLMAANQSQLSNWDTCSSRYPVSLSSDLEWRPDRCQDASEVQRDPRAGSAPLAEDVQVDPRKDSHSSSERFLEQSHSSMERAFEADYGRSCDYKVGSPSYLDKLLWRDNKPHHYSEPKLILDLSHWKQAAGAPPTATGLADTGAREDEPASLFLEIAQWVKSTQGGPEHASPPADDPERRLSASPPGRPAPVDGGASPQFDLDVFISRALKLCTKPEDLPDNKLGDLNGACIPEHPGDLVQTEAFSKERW
T7 sequence (O00506 whole entry): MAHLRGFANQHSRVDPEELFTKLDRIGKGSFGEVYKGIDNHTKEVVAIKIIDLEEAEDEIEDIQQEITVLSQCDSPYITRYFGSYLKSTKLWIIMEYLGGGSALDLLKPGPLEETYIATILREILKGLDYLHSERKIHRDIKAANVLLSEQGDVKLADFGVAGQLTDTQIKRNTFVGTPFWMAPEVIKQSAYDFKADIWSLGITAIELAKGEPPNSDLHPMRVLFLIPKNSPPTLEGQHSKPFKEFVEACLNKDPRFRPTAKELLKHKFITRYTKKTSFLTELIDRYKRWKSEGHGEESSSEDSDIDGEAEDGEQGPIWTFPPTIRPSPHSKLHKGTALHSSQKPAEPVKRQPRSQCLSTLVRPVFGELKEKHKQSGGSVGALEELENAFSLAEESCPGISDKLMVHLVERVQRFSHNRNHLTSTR
T12 sequence (O75716 whole entry): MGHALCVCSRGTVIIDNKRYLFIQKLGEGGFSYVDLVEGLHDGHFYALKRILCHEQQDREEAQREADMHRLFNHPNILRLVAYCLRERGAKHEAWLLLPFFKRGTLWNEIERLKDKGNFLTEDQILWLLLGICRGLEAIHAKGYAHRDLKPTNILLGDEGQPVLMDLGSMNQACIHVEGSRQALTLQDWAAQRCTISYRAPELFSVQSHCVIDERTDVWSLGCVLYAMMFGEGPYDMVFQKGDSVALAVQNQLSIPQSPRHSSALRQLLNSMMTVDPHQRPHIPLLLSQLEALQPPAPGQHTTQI
T22 sequence (P42336 whole entry C420R): as the sequence (P42336 whole entry E545A) above, with C420R, A545E counted along it
PIK3CA(E545K), sequence (P42336 whole entry E545K): as the sequence (P42336 whole entry E545A) above, with A545K counted along it

## NCCCNc1nc2c(Br)c(Br)c(Br)c(Br)c2[nH]1 [Compound 11, N-(3-aminopropyl)-4,5,6,7-tetrabromo-1H-benzo[d]imidazol-2-amine]
PRKCI
  remaining binding at 1 µM: 100%
KIT(D816H)
  remaining binding at 1 µM: 97%
ERK4
  remaining binding at 1 µM: 98%
PAK6
  remaining binding at 1 µM: 99%
KIT(V559D.V654A)
  remaining binding at 1 µM: 100%
PIK3CA(E545A)
  remaining binding at 1 µM: 96%
PIK3C2B
  remaining binding at 1 µM: 96%
YSK1
  remaining binding at 1 µM: 100%
AAK1
  remaining binding at 1 µM: 97%
IRAK3
  remaining binding at 1 µM: 86%
IGF1R
  remaining binding at 1 µM: 100%
NDR1
  remaining binding at 1 µM: 100%
FLT3
  remaining binding at 1 µM: 100%
STK16
  remaining binding at 1 µM: 87%
FLT3(R834Q)
  remaining binding at 1 µM: 100%
MUSK
  remaining binding at 1 µM: 97%
PIK3CA(E545K)
  remaining binding at 1 µM: 92%
EPHB1
  remaining binding at 1 µM: 100%
BRSK2
  remaining binding at 1 µM: 91%
SRPK3
  remaining binding at 1 µM: 100%
CAMKK1
  remaining binding at 1 µM: 100%
MKNK1
  remaining binding at 1 µM: 100%
PHKG1
  remaining binding at 1 µM: 94%
KIT(A829P)
  remaining binding at 1 µM: 100%
HIPK2
  remaining binding at 1 µM: 0.8%
PCTK2
  remaining binding at 1 µM: 100%
EGFR(L858R.T790M)
  % binding: 100%
PIK3CA(C420R)
  remaining binding at 1 µM: 100%
FYN
  remaining binding at 1 µM: 100%
PAK4
  remaining binding at 1 µM: 85%
FGR
  remaining binding at 1 µM: 100%
PRKG2
  remaining binding at 1 µM: 7%
FES
  remaining binding at 1 µM: 100%
S6K1
  remaining binding at 1 µM: 79%
